According to article PMC5051865, “The Effect of Albumin on MRP2 and BCRP in the Vesicular Transport Assay” (PLoS ONE, 2016):
Where two headings read alike, the source gives them in different places. One block for each compound: values may come before it.

Tests used:
[1] = test system: UGT2A1; parameters: method as in PMID 23372764; conditions: cited from earlier work
[2] = test system: UGT2B7; conditions: cited from earlier work
[3] = target: T1, bovine serum albumin (BSA) (Bos taurus, UniProt P02769); assay: Substrate binding to BSA, rapid equilibrium dialysis (RED); assay type: in vitro ADME; conditions: for fu (± SD): 37°C, 7 h, n = 3
T1 construct: purchased Sigma-Aldrich (St. Louis, MO)
Excerpt: The fraction of unbound substrate in the presence of BSA was studied with the rapid equilibrium dialysis (RED) device (Thermo Scientific, Waltham, MA). In the RED system, two chambers in a well are separated with dialysis membrane. The transporter substrate (CDCF, E217βG or LY) was placed in the donor chamber in assay buffer with control membrane vesicles in the presence or absence of BSA to mimic the VT assay conditions. The final concentrations of BSA was 0.1% or 1.0%. Plain assay buffer was pipetted into the receiver chambers of all wells until the liquid level of both chambers was equal. […] Samples were incubated at 37°C on an orbital shaker. After 7 hour incubation, a small aliquot was collected from each receiver chamber for analysis. The relative fraction of unbound substrate (fu) was calculated as the ratio of concentrations in the receiver chambers from the samples with and without BSA.
Acetonitrile and phosphate buffers were used as mobile phase and flow rate was 0.5 ml/min.

[4] = target: T2, human MRP2 (Homo sapiens, UniProt Q92887)
Excerpt: v=Vmax[S]^h/Km^h+[S]^h (2)

[5] = test system: UGT1A7; parameters: method as in PMID 23372764; conditions: cited from earlier work
[6] = test system: CYPs, human liver microsomes; parameters: method as in PMID 18256202, PMID 21305272; conditions: cited from earlier work
[7] = target: T3, human BCRP (Homo sapiens, UniProt Q9UNQ0); conditions: BCRP vesicles; for increase in maximal LY uptake by BCRP: 0.1% BSA vs no BSA; for Km: cholesterol loaded, best fit value (± standard error)
T3 sequence (Q9UNQ0 1-655): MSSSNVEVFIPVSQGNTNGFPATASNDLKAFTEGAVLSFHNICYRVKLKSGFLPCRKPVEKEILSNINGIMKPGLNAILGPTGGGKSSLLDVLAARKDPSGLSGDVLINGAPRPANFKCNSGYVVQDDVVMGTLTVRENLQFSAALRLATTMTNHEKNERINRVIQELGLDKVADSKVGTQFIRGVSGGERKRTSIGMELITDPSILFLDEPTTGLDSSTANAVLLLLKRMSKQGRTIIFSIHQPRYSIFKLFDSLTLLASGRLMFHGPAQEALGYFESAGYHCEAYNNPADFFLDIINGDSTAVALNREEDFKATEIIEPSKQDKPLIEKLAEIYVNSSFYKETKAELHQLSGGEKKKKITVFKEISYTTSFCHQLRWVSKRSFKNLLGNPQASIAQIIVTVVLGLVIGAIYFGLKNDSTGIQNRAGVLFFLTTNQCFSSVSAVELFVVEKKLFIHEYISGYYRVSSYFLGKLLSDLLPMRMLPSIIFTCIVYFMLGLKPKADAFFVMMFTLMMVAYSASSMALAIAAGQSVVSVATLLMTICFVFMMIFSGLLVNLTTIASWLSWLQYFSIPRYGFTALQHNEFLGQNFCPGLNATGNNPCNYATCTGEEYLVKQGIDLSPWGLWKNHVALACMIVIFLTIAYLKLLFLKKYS

[8] = target: T3, human BCRP; assay: Inhibition of LY uptake into BCRP vesicles by oleic acid (VT assay)
Procedure: (§1) The modulation of MRP2 and BCRP uptake by fatty acid oleic acid was also studied with the VT assay. The assay was performed as above, but oleic acid was present at various concentrations. The probe concentration in these studies was 5 μM for CDCF and 50 μM for LY. Plain vehicle (70% ethanol) was used as a control.
(§2) The oleic acid concentration required for 50% inhibition (IC50), was calculated from the concentration-response data using four parameter logistic regression, Response=Responsemin+Responsemax−Responsemin/1+([I]/IC50)^h (3) where response is the control normalized ATP-dependent uptake (%), Responsemin and Responsemax represent the plateaus corresponding to minimal and maximal normalized uptake (%), [I] is the concentration of inhibitor (μM), IC50 is the inhibitor concentration required for a response half-way between minimal and maximal response (μM) and h is the Hill coefficient. The Responsemin term was constrained to be larger than zero, where zero indicates full abolishment of uptake.

[9] = target: T2, human MRP2; assay: Inhibition of CDCF uptake into MRP2 vesicles by oleic acid (VT assay); conditions: 5 μM CDCF
Procedure: as §1, §2

[10] = test system: BCRP; parameters: method as in PMID 22819932; conditions: Caco-2 cells, oleic acid > 1 mM; cited from earlier work
[11] = test system: BCRP; parameters: method as in PMID 24342797; conditions: sandwich-cultured hepatocytes, oleic acid > 1 mM; cited from earlier work
[12] = MRP2 vesicles, 0.1% BSA vs no BSA

T2 sequence (Q92887 whole entry): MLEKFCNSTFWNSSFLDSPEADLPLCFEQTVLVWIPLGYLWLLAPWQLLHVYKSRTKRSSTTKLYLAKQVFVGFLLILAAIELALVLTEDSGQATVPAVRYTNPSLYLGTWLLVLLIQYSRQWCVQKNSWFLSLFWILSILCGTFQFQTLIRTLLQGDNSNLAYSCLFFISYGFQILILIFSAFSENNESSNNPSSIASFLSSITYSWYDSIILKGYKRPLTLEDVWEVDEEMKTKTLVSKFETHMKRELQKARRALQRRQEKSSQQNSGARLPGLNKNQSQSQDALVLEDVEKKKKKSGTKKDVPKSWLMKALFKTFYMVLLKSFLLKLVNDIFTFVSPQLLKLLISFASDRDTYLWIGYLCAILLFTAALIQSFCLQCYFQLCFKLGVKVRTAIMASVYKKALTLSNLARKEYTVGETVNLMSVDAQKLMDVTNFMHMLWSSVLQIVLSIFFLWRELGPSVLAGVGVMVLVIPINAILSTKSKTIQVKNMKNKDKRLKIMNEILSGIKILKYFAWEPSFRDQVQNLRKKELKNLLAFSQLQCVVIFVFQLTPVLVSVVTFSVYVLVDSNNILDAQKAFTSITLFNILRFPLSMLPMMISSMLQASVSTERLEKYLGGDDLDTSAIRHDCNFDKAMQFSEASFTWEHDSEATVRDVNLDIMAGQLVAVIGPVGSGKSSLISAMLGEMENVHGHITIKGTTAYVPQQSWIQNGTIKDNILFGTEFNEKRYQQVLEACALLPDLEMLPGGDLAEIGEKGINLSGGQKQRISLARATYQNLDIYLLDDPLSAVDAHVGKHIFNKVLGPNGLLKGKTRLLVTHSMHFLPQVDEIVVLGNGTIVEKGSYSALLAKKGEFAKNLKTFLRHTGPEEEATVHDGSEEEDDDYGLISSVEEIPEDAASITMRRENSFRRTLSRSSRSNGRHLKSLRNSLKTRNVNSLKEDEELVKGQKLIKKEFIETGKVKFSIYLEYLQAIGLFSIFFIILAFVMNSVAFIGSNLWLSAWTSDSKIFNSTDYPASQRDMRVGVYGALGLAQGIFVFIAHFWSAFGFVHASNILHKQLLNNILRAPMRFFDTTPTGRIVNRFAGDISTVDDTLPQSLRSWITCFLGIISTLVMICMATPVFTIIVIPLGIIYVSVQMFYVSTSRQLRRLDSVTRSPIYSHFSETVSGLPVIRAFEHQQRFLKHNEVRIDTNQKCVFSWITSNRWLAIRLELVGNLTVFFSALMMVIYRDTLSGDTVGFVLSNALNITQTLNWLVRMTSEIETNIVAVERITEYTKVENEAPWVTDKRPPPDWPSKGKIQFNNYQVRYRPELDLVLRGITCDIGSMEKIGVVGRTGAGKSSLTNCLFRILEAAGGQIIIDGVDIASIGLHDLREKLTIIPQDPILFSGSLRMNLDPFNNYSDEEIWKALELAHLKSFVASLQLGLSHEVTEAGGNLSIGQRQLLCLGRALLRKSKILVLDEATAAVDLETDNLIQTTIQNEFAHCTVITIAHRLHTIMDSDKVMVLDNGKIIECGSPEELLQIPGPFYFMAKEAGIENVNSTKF
T1 sequence (P02769 25-607): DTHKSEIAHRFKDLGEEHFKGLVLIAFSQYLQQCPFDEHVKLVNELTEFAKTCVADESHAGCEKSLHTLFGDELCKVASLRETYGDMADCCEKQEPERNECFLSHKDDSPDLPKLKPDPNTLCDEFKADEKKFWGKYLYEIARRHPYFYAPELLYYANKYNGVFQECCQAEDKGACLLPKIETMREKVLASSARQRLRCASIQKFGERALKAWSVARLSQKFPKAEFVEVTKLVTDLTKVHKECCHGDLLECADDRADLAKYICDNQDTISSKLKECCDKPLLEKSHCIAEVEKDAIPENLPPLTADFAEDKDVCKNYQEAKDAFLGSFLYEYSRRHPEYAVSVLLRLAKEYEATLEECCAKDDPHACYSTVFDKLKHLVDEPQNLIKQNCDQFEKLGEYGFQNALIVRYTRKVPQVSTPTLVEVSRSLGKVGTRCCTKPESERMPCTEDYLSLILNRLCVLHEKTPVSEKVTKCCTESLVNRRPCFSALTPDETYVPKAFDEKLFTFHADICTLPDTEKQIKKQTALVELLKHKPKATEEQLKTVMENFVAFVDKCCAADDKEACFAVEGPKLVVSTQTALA

Compound: Oc1ccc2cc[nH]c2c1 [6-hydroxyindole]
decrease in Km caused by albumin [1]: > 20 fold

Compound: Cc1cn([C@H]2C[C@H](N=[N+]=[N-])[C@@H](CO)O2)c(=O)[nH]c1=O [zidovudine]
increase in affinity caused by albumin [2]: 10 fold

average fu ([3]; 0.1% BSA, average over concentrations): 0.94
fu (± SD) ([3]; 0.1% BSA, substrate 1 μM): 0.92 (± 0.02)
fu (± SD) ([3]; 0.1% BSA, substrate 5 μM): 0.94 (± 0.02)
fu (± SD) ([3]; 0.1% BSA, substrate 50 μM): 0.96 (± 0.01)
fu (± SD) ([3]; 1.0% BSA, substrate 5 μM): 0.43 (± 0.02)
fu (± SD) ([3]; 1.0% BSA, substrate 50 μM): 0.53 (± 0.02)
fu (± SD) ([3]; 1.0% BSA, substrate 200 μM): 0.73 (± 0.03)
increase of Vmax of uptake into MRP2 vesicles ([4]; 0.1% BSA vs no BSA): 2 fold
increase of Km by BSA [4, 12]: ~63%
increase of Vmax by BSA [4, 12]: roughly 110%
Vmax in the presence of 0.1% BSA ([4]; MRP2 vesicles, Vmax in the absence of BSA set at 100%): 210.4 (± 21.1) %
Compound: 5(6)-carboxy-2’,7’-dichlorofluorescein [CDCF]

Compound: CCN(CC)C(=O)/C(C#N)=C/c1cc(O)c(O)c([N+](=O)[O-])c1 [entacapone]
increase in Vmax caused by albumin [5]: up to 7 fold

Compound: Nc1nnc(-c2cccc(Cl)c2Cl)c(N)n1 [lamotrigine]
increase in affinity caused by albumin [2]: 7 fold

Compound: O=C1NC(=O)C(c2ccccc2)(c2ccccc2)N1 [phenytoin]
decrease in Km of hydroxylation caused by albumin [6]: 4 fold

Compound: Lucifer yellow [LY]
fu (± SD) ([3]; 0.1% BSA, substrate 20 μM): 0.98 (± 0.01)
fu (± SD) ([3]; 0.1% BSA, substrate 200 μM): 0.98 (± 0.03)
increase in maximal LY uptake by BCRP [7]: 28%
increase in maximal LY uptake by BCRP ([7]; listed as Lucifer yellow): 30%
Vmax in the presence of 0.1% BSA ([7]; Vmax in the absence of BSA set at 100%): 127.5 (± 6.2) %
Km ([7]; read-out: Km with 0.1% BSA, 0.1% BSA): 33.5 µM
Km ([7]; read-out: Km without BSA): 31.2 µM

fu (± SD) ([3]; 0.1% BSA, substrate 15 μM): 0.96 (± 0.04)
fu (± SD) ([3]; 0.1% BSA, substrate 50 μM): 1.00 (± 0.03)
fu (± SD) ([3]; 0.1% BSA, substrate 150 μM): 0.98 (± 0.04)
increase of Km by BSA [4, 12]: 36%
Compound: C[C@]12CC[C@@H]3c4ccc(O)cc4CC[C@H]3[C@@H]1CC[C@@H]2O[C@@H]1O[C@H](C(=O)O)[C@@H](O)[C@H](O)[C@H]1O [E217βG]

Compound: CC(=O)O[C@H]1C(=O)[C@@]2(C)[C@H]([C@H](OC(=O)c3ccccc3)[C@]3(O)C[C@H](OC(=O)[C@H](O)[C@@H](NC(=O)c4ccccc4)c4ccccc4)C(C)=C1C3(C)C)[C@]1(OC(C)=O)CO[C@@H]1C[C@@H]2O [paclitaxel]
decrease in Km of hydroxylation caused by albumin [6]: 3 fold

IC50 [8]: 28.2 µM
effect on substrate uptake [9]: decreased the uptake of substrates
Compound: CCCCCCCC/C=C\CCCCCCCC(=O)O [oleic acid]
effect on BCRP-mediated transport of mitoxantrone [10]: decrease BCRP-mediated transport of mitoxantrone
effect on BCRP-mediated transport of rosuvastatin [11]: decrease BCRP-mediated transport
